{"source": "paper PMC7156458", "about": "“Synthetic biology based construction of biological activity-related library of fungal decalin-containing diterpenoid pyrones” (Nature Communications, 2020)", "target": "Aβ42 (Homo sapiens, UniProt P05067)", "sequence (P05067 672-713)": "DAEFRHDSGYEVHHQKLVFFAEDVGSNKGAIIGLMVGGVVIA", "test": "Th-T (thioflavin-T) assay of Aβ42 aggregation", "format": "biochemical", "details": "for Th-T assay plate reading, mean of three wells (Supplementary Fig. 47): source data, Ab alone and No Ab as controls", "data": [{"smiles": "C=C1CCC2C(C)(CCC=C(C)C)C(O)CCC2(C)C1Cc1c(O)c(C)c(C)oc1=O", "note": "(stereo not drawn) [Compound 9, higginsianin B]", "values": [{"measurement": "Th-T fluorescence, mean of three wells", "setting": "Aβ42 aggregation time course, reading M117", "result": 2.792}, {"measurement": "Th-T fluorescence, mean of three wells", "setting": "Aβ42 aggregation time course, reading M118", "result": 2.807}, {"measurement": "Th-T fluorescence, mean of three wells", "setting": "Aβ42 aggregation time course, reading M119", "result": 2.796}, {"measurement": "Th-T fluorescence, mean of three wells", "setting": "Aβ42 aggregation time course, reading M120", "result": 2.799}, {"measurement": "Th-T fluorescence, mean of three wells", "setting": "Aβ42 aggregation time course, reading M121", "result": 2.791}, {"measurement": "Th-T fluorescence, mean of three wells", "setting": "Aβ42 aggregation time course, reading M122", "result": 2.801}, {"measurement": "Th-T fluorescence, mean of three wells", "setting": "Aβ42 aggregation time course, reading M123", "result": 2.8089}, {"measurement": "Th-T fluorescence, mean of three wells", "setting": "Aβ42 aggregation time course, reading M124", "result": 2.764}, {"measurement": "Th-T fluorescence, mean of three wells", "setting": "Aβ42 aggregation time course, reading M125", "result": 2.798}, {"measurement": "Th-T fluorescence, mean of three wells", "setting": "Aβ42 aggregation time course, reading M126", "result": 2.7918}, {"measurement": "Th-T fluorescence, mean of three wells", "setting": "Aβ42 aggregation time course, reading M127", "result": 2.782}, {"measurement": "Th-T fluorescence, mean of three wells", "setting": "Aβ42 aggregation time course, reading M128", "result": 2.756}, {"measurement": "Th-T fluorescence, mean of three wells", "setting": "Aβ42 aggregation time course, reading M129", "result": 2.788}, {"measurement": "Th-T fluorescence, mean of three wells", "setting": "Aβ42 aggregation time course, reading M130", "result": 2.772}, {"measurement": "Th-T fluorescence, mean of three wells", "setting": "Aβ42 aggregation time course, reading M131", "result": 2.794}, {"measurement": "Th-T fluorescence, mean of three wells", "setting": "Aβ42 aggregation time course, reading M132", "result": 2.756}, {"measurement": "Th-T fluorescence, mean of three wells", "setting": "Aβ42 aggregation time course, reading M133", "result": 2.787}, {"measurement": "Th-T fluorescence, mean of three wells", "setting": "Aβ42 aggregation time course, reading M134", "result": 2.786}, {"measurement": "Th-T fluorescence, mean of three wells", "setting": "Aβ42 aggregation time course, reading M135", "result": 2.766}, {"measurement": "Th-T fluorescence, mean of three wells", "setting": "Aβ42 aggregation time course, reading M136", "result": 2.788}, {"measurement": "Th-T fluorescence, mean of three wells", "setting": "Supplementary Fig. 47, reading M137", "result": 2.782}, {"measurement": "Th-T fluorescence, mean of three wells", "setting": "Supplementary Fig. 47, reading M138", "result": 2.781}, {"measurement": "Th-T fluorescence, mean of three wells", "setting": "Supplementary Fig. 47, reading M139", "result": 2.778}, {"measurement": "Th-T fluorescence, mean of three wells", "setting": "Supplementary Fig. 47, reading M140", "result": 2.777}, {"measurement": "Th-T fluorescence, mean of three wells", "setting": "Supplementary Fig. 47, reading M141", "result": 2.762}, {"measurement": "Th-T fluorescence, mean of three wells", "setting": "Supplementary Fig. 47, reading M142", "result": 2.77}, {"measurement": "Th-T fluorescence, mean of three wells", "setting": "Supplementary Fig. 47, reading M143", "result": 2.794}, {"measurement": "Th-T fluorescence, mean of three wells", "setting": "Supplementary Fig. 47, reading M144", "result": 2.791}, {"measurement": "Th-T fluorescence, mean of three wells", "setting": "Supplementary Fig. 47, reading M145", "result": 2.767}, {"measurement": "Th-T assay plate reading, mean of three wells (Supplementary Fig. 47)", "setting": "measurement M1", "result": 0.2408}, {"measurement": "Th-T assay plate reading, mean of three wells (Supplementary Fig. 47)", "setting": "measurement M2", "result": 0.2372}, {"measurement": "Th-T assay plate reading, mean of three wells (Supplementary Fig. 47)", "setting": "measurement M3", "result": 0.2484}, {"measurement": "Th-T assay plate reading, mean of three wells (Supplementary Fig. 47)", "setting": "measurement M4", "result": 0.2764}, {"measurement": "Th-T assay plate reading, mean of three wells (Supplementary Fig. 47)", "setting": "measurement M5", "result": 0.3211}, {"measurement": "Th-T assay plate reading, mean of three wells (Supplementary Fig. 47)", "setting": "measurement M6", "result": 0.3818}, {"measurement": "Th-T assay plate reading, mean of three wells (Supplementary Fig. 47)", "setting": "measurement M7", "result": 0.386}, {"measurement": "Th-T assay plate reading, mean of three wells (Supplementary Fig. 47)", "setting": "measurement M8", "result": 0.4241}, {"measurement": "Th-T assay plate reading, mean of three wells (Supplementary Fig. 47)", "setting": "measurement M9", "result": 0.4754}, {"measurement": "Th-T assay plate reading, mean of three wells (Supplementary Fig. 47)", "setting": "measurement M10", "result": 0.5222}, {"measurement": "Th-T assay plate reading, mean of three wells (Supplementary Fig. 47)", "setting": "measurement M11", "result": 0.5741}, {"measurement": "Th-T assay plate reading, mean of three wells (Supplementary Fig. 47)", "setting": "measurement M12", "result": 0.6179}, {"measurement": "Th-T assay plate reading, mean of three wells (Supplementary Fig. 47)", "setting": "measurement M13", "result": 0.6443}, {"measurement": "Th-T assay plate reading, mean of three wells (Supplementary Fig. 47)", "setting": "measurement M14", "result": 0.6952}, {"measurement": "Th-T assay plate reading, mean of three wells (Supplementary Fig. 47)", "setting": "measurement M15", "result": 0.7748}, {"measurement": "Th-T assay plate reading, mean of three wells (Supplementary Fig. 47)", "setting": "measurement M16", "result": 1.021}, {"measurement": "Th-T fluorescence, mean of three wells", "setting": "reading M17, Supplementary Fig. 47 source data", "result": 1.394}, {"measurement": "Th-T fluorescence, mean of three wells", "setting": "time-course reading M97, Supplementary Fig. 47 source data", "result": 2.816}, {"measurement": "Th-T fluorescence, mean of three wells", "setting": "time-course reading M98, Supplementary Fig. 47 source data", "result": 2.842}, {"measurement": "Th-T fluorescence, mean of three wells", "setting": "time-course reading M99, Supplementary Fig. 47 source data", "result": 2.834}, {"measurement": "Th-T fluorescence, mean of three wells", "setting": "time-course reading M100, Supplementary Fig. 47 source data", "result": 2.825}, {"measurement": "Th-T fluorescence, mean of three wells", "setting": "time-course reading M101, Supplementary Fig. 47 source data", "result": 2.818}, {"measurement": "Th-T fluorescence, mean of three wells", "setting": "time-course reading M102, Supplementary Fig. 47 source data", "result": 2.832}, {"measurement": "Th-T fluorescence, mean of three wells", "setting": "time-course reading M103, Supplementary Fig. 47 source data", "result": 2.816}, {"measurement": "Th-T fluorescence, mean of three wells", "setting": "time-course reading M104, Supplementary Fig. 47 source data", "result": 2.8075}, {"measurement": "Th-T fluorescence, mean of three wells", "setting": "time-course reading M105, Supplementary Fig. 47 source data", "result": 2.8016}, {"measurement": "Th-T fluorescence, mean of three wells", "setting": "time-course reading M106, Supplementary Fig. 47 source data", "result": 2.808}, {"measurement": "Th-T fluorescence, mean of three wells", "setting": "time-course reading M107, Supplementary Fig. 47 source data", "result": 2.794}, {"measurement": "Th-T fluorescence, mean of three wells", "setting": "time-course reading M108, Supplementary Fig. 47 source data", "result": 2.811}, {"measurement": "Th-T fluorescence, mean of three wells", "setting": "time-course reading M109, Supplementary Fig. 47 source data", "result": 2.783}, {"measurement": "Th-T fluorescence, mean of three wells", "setting": "time-course reading M110, Supplementary Fig. 47 source data", "result": 2.799}, {"measurement": "Th-T fluorescence, mean of three wells", "setting": "time-course reading M111, Supplementary Fig. 47 source data", "result": 2.807}, {"measurement": "Th-T fluorescence, mean of three wells", "setting": "time-course reading M112, Supplementary Fig. 47 source data", "result": 2.812}, {"measurement": "Th-T fluorescence, mean of three wells", "setting": "time-course reading M113, Supplementary Fig. 47 source data", "result": 2.81}, {"measurement": "Th-T fluorescence, mean of three wells", "setting": "time-course reading M114, Supplementary Fig. 47 source data", "result": 2.8}, {"measurement": "Th-T fluorescence, mean of three wells", "setting": "time-course reading M115, Supplementary Fig. 47 source data", "result": 2.812}, {"measurement": "Th-T fluorescence, mean of three wells", "setting": "time-course reading M116, Supplementary Fig. 47 source data", "result": 2.796}]}]}
